According to patent publication US10131652B2, “Pyrimidinyloxy benzene derivatives as herbicides” (E. I. DU PONT DE NEMOURS AND COMPANY, priority 2014, dated 2018):
Like-named read-outs stand apart in the source and are kept apart here.

Columns and labels:
Assay type in all cases: in vivo
kochia (Kochia scoparia) = assay: Test B pre-/postemergence plant response
How it was run: (§1)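 Seeds in loam–sand blend given preemergence soil spray; separately, plants at one- to two-leaf stage (2–10 cm) sprayed postemergence, compounds in non-phytotoxic solvent with surfactant. Injury rated visually versus untreated controls after ~10 days in greenhouse, 0 (no effect) to 100 (complete control).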

[1] = system: Italian ryegrass (Lolium multiflorum); assay: Test B pre-/postemergence plant response
How it was run: as §1

[2] = system: ragweed (common ragweed, Ambrosia elatior); assay: Test B pre-/postemergence plant response
How it was run: as §1

[3] = system: galium (catchweed bedstraw, Galium aparine); assay: Test D pre-/postemergence plant response; conditions: Galium; for pest or weed control at 31 g/ha: 31 g ai/ha; for pest or weed control at 62 g/ha: 62 g ai/ha; for pest or weed control at 125 g/ha: 125 g ai/ha
How it was run: (§2)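 Plants are held in a greenhouse 13 to 15 days after spraying, then injury is rated by eye relative to controls on a 0 to 100 scale. Treatments are preemergence on freshly sown loam/sand pots or postemergence at 1- to 4-leaf stage in peat-based medium; surfactant-containing solvent formulation.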

[4] = system: Italian ryegrass (Lolium multiflorum); assay: Test D pre-/postemergence plant response; conditions: Lolium multiflorum; for pest or weed control at 31 g/ha: 31 g ai/ha; for pest or weed control at 62 g/ha: 62 g ai/ha; for pest or weed control at 125 g/ha: 125 g ai/ha
How it was run: as §2

corn (Zea mays) = assay: Test D pre-/postemergence plant response; conditions: Zea mays; for Corn plant response rating (crop injury, 0 = no effect, 100 = complete kill) at 62 g/ha: 62 g ai/ha
How it was run: as §2

[5] = system: lambsquarters (Chenopodium album); assay: Test D pre-/postemergence plant response; conditions: Chenopodium album; for pest or weed control at 31 g/ha: 31 g ai/ha; for pest or weed control at 62 g/ha: 62 g ai/ha; for pest or weed control at 125 g/ha: 125 g ai/ha
How it was run: as §2

[6] = system: winter wheat (Triticum aestivum); assay: Test D pre-/postemergence plant response; conditions: Triticum aestivum; for plant injury at 31 g/ha: 31 g ai/ha; for plant injury at 62 g/ha: 62 g ai/ha; for plant injury at 125 g/ha: 125 g ai/ha
How it was run: as §2

[7] = system: oilseed rape (Brassica napus); assay: Test D pre-/postemergence plant response; conditions: Brassica napus; for plant injury at 31 g/ha: 31 g ai/ha
How it was run: as §2

[8] = system: velvetleaf (Abutilon theophrasti); assay: Test D pre-/postemergence plant response; conditions: Abutilon theophrasti; for pest or weed control at 31 g/ha: 31 g ai/ha; for pest or weed control at 62 g/ha: 62 g ai/ha; for pest or weed control at 125 g/ha: 125 g ai/ha
How it was run: as §2

[9] = system: small-flower umbrella sedge (Cyperus difformis); assay: Test C flooded paddy test plant response; conditions: Cyperus difformis; Flood, 250 g ai/ha; scale of 0 to 100 where 0 is no effect and 100 is complete control; 13 to 15 days; read-out: Sedge, Umbrella plant response rating
How it was run: (§3)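 Plants grown to 2-leaf stage, flooded 3 cm above soil; compounds applied directly into paddy water, depth kept throughout. Visual rating versus controls after 13 to 15 days in greenhouse, 0 (no effect) to 100 (complete control).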

rice (Oryza sativa) = assay: Test C flooded paddy test plant response; conditions: Oryza sativa; Flood, 250 g ai/ha; scale of 0 to 100 where 0 is no effect and 100 is complete control; 13 to 15 days; read-out: Rice plant response rating
How it was run: as §3

[10] = system: ducksalad (Heteranthera limosa); assay: Test C flooded paddy test plant response; conditions: Heteranthera limosa; Flood, 250 g ai/ha; scale of 0 to 100 where 0 is no effect and 100 is complete control; 13 to 15 days; read-out: Ducksalad plant response rating
How it was run: as §3

[11] = system: barnyardgrass (Echinochloa crus-galli); assay: Test C flooded paddy test plant response; conditions: Echinochloa crus-galli; Flood, 250 g ai/ha; scale of 0 to 100 where 0 is no effect and 100 is complete control; 13 to 15 days; read-out: Barnyardgrass plant response rating
How it was run: as §3

[12] = 31 g ai/ha, Preemergence, 0 to 100 scale where 0 is no effect and 100 is complete control
[13] = 125 g ai/ha, postemergence, 0 to 100 scale, 0 no effect, 100 complete control
[14] = Postemergence, 31 g ai/ha, 0 to 100 scale (0 no effect, 100 complete control)
[15] = Preemergence, 125 g ai/ha, 0 to 100 scale (0 no effect, 100 complete control)
[16] = post-emergence, Postemergence, scale 0 to 100, 0 no effect, 100 complete control, read-out: Plant response rating, Galium
[17] = pre-emergence, Preemergence, scale 0 to 100 (0 no effect, 100 complete control), read-out: Plant response rating, Galium
[18] = post-emergence, Postemergence, scale 0 to 100, 0 no effect, 100 complete control, read-out: Plant response rating, Ryegrass, Italian
[19] = pre-emergence, Preemergence, scale 0 to 100 (0 no effect, 100 complete control), read-out: Plant response rating, Ryegrass, Italian
[20] = post-emergence, Postemergence, scale 0 to 100, 0 no effect, 100 complete control, read-out: Plant response rating, Lambsquarters
[21] = pre-emergence, Preemergence, scale 0 to 100 (0 no effect, 100 complete control), read-out: Plant response rating, Lambsquarters
[22] = post-emergence, Postemergence, scale 0 to 100, 0 no effect, 100 complete control, read-out: Plant response rating, Wheat
[23] = pre-emergence, Preemergence, scale 0 to 100 (0 no effect, 100 complete control), read-out: Plant response rating, Wheat
[24] = post-emergence, Postemergence, scale 0 to 100, 0 no effect, 100 complete control, read-out: Plant response rating, Velvetleaf
[25] = pre-emergence, Preemergence, scale 0 to 100 (0 no effect, 100 complete control), read-out: Plant response rating, Velvetleaf

With Fc1cccc(Oc2ncc(Br)cn2)c1-c1cc(C(F)F)no1 [Compound 145, 5-bromo-2-[2-[3-(difluoromethyl)-5-isoxazolyl]-3-fluorophenoxy]pyrimidine] the “Plant response rating, Kochia” value (kochia (Kochia scoparia); [12]) was 90, the “Plant response rating, Kochia” value (kochia (Kochia scoparia); [13]) was 100 and the “Plant response rating, Kochia” value (kochia (Kochia scoparia); [14]) was 100. The “Kochia plant response rating” value (kochia (Kochia scoparia); [15]) was 100, the “Plant response rating, Ryegrass, Italian” value [1, 12] was 0 and the “Plant response rating, Ryegrass, Italian” value [1, 13] was 80. The “Plant response rating, Ryegrass, Italian” value [1, 14] was 20, the “Ryegrass, Italian plant response rating” value [1, 15] was 40 and the “Plant response rating, Ragweed” value [2, 12] was 0. The “Plant response rating, Ragweed” value [2, 13] was 50, the “Plant response rating, Ragweed” value [2, 14] was 20 and the “Ragweed plant response rating” value [2, 15] was 20. The pest or weed control at 31 g/ha ([3]; post-emergence, Postemergence, scale 0 to 100 (0 no effect, 100 complete control), read-out: Galium plant response rating) was 80%, the pest or weed control at 62 g/ha [3, 16] was 80% and the pest or weed control at 125 g/ha [3, 16] was 90%. The pest or weed control at 125 g/ha ([3]; pre-emergence, Preemergence, read-out: Plant response rating (scale 0 to 100), Galium) was 100%, the pest or weed control at 16 g/ha ([3]; pre-emergence, Preemergence, 16 g ai/ha, scale 0 to 100 (0 no effect, 100 complete control), read-out: Plant response rating, Galium) was 90% and the pest or weed control at 31 g/ha [3, 17] was 98%. It also gave a pest or weed control at 62 g/ha [3, 17] of 100%, a pest or weed control at 31 g/ha ([4]; post-emergence, Postemergence, scale 0 to 100 (0 no effect, 100 complete control), read-out: Ryegrass, Italian plant response rating) of 0% and a pest or weed control at 62 g/ha [4, 18] of 10%. The pest or weed control at 125 g/ha [4, 18] was 10%, the pest or weed control at 125 g/ha ([4]; pre-emergence, Preemergence, read-out: Plant response rating (scale 0 to 100), Ryegrass, Italian) was 85% and the pest or weed control at 16 g/ha ([4]; pre-emergence, Preemergence, 16 g ai/ha, scale 0 to 100 (0 no effect, 100 complete control), read-out: Plant response rating, Ryegrass, Italian) was 0%. For the same molecule, the pest or weed control at 31 g/ha [4, 19] was 35%, the pest or weed control at 62 g/ha [4, 19] was 70% and the plant injury at 16 g/ha (corn (Zea mays); post-emergence, Postemergence, 16 g ai/ha, scale 0 to 100 (0 no effect, 100 complete control), read-out: Corn plant response rating) was 5%. For the same molecule, the plant injury at 31 g/ha (corn (Zea mays); post-emergence, Postemergence, 31 g ai/ha, scale 0 to 100 (0 no effect, 100 complete control), read-out: Corn plant response rating) was 5%, the Corn plant response rating (crop injury, 0 = no effect, 100 = complete kill) at 62 g/ha (corn (Zea mays); post-emergence, Postemergence, scale 0 to 100, 0 no effect, 100 complete control) was 5% and the Corn plant response rating (crop injury, 0 = no effect, 100 = complete kill) at 125 g/ha (corn (Zea mays); post-emergence, Postemergence, 125 g ai/ha, scale 0 to 100, 0 no effect, 100 complete control) was 10%. The plant injury at 125 g/ha (corn (Zea mays); pre-emergence, Preemergence, 125 g ai/ha, read-out: Plant response rating (scale 0 to 100), Corn) was 45%, the Corn plant response rating (crop injury, 0 = no effect, 100 = complete kill) at 16 g/ha (corn (Zea mays); pre-emergence, Preemergence, 16 g ai/ha, scale 0 to 100 (0 no effect, 100 complete control)) was 0% and the Corn plant response rating (crop injury, 0 = no effect, 100 = complete kill) at 31 g/ha (corn (Zea mays); pre-emergence, Preemergence, 31 g ai/ha, scale 0 to 100 (0 no effect, 100 complete control)) was 5%. It also gave a Corn plant response rating (crop injury, 0 = no effect, 100 = complete kill) at 62 g/ha (corn (Zea mays); pre-emergence, Preemergence, scale 0 to 100 (0 no effect, 100 complete control)) of 10%, a pest or weed control at 31 g/ha ([5]; post-emergence, Postemergence, scale 0 to 100 (0 no effect, 100 complete control), read-out: Lambsquarters plant response rating) of 85% and a pest or weed control at 62 g/ha [5, 20] of 85%. The pest or weed control at 125 g/ha [5, 20] was 95%, the pest or weed control at 125 g/ha ([5]; pre-emergence, Preemergence, read-out: Plant response rating (scale 0 to 100), Lambsquarters) was 100% and the pest or weed control at 16 g/ha ([5]; pre-emergence, Preemergence, 16 g ai/ha, scale 0 to 100 (0 no effect, 100 complete control), read-out: Plant response rating, Lambsquarters) was 100%. It also gave a pest or weed control at 31 g/ha [5, 21] of 100%, a pest or weed control at 62 g/ha [5, 21] of 100% and a plant injury at 31 g/ha ([6]; post-emergence, Postemergence, scale 0 to 100 (0 no effect, 100 complete control), read-out: Wheat plant response rating) of 5%. For the same molecule, the plant injury at 62 g/ha [6, 22] was 5%, the plant injury at 125 g/ha [6, 22] was 10% and the plant injury at 125 g/ha ([6]; pre-emergence, Preemergence, read-out: Plant response rating (scale 0 to 100), Wheat) was 10%. The plant injury at 16 g/ha ([6]; pre-emergence, Preemergence, 16 g ai/ha, scale 0 to 100 (0 no effect, 100 complete control), read-out: Plant response rating, Wheat) was 0%, the plant injury at 31 g/ha [6, 23] was 0% and the plant injury at 62 g/ha [6, 23] was 5%. The plant injury at 31 g/ha ([7]; post-emergence, Postemergence, scale 0 to 100 (0 no effect, 100 complete control), read-out: Oilseed Rape plant response rating) was 70%, the plant injury at 125 g/ha ([7]; pre-emergence, Preemergence, 125 g ai/ha, read-out: Plant response rating (scale 0 to 100), Oilseed Rape) was 100% and the plant injury at 16 g/ha ([7]; pre-emergence, Preemergence, 16 g ai/ha, scale 0 to 100 (0 no effect, 100 complete control), read-out: Plant response rating, Oilseed Rape) was 40%. It also gave a plant injury at 31 g/ha ([7]; pre-emergence, Preemergence, scale 0 to 100 (0 no effect, 100 complete control), read-out: Plant response rating, Oilseed Rape) of 100%, a plant injury at 62 g/ha ([7]; pre-emergence, Preemergence, 62 g ai/ha, scale 0 to 100 (0 no effect, 100 complete control), read-out: Plant response rating, Oilseed Rape) of 100% and a pest or weed control at 31 g/ha ([8]; post-emergence, Postemergence, scale 0 to 100 (0 no effect, 100 complete control), read-out: Velvetleaf plant response rating) of 70%. It also gave a pest or weed control at 62 g/ha [8, 24] of 75%, a pest or weed control at 125 g/ha [8, 24] of 80% and a pest or weed control at 125 g/ha ([8]; pre-emergence, Preemergence, read-out: Plant response rating (scale 0 to 100), Velvetleaf) of 100%. For the same molecule, the pest or weed control at 16 g/ha ([8]; pre-emergence, Preemergence, 16 g ai/ha, scale 0 to 100 (0 no effect, 100 complete control), read-out: Plant response rating, Velvetleaf) was 90%, the pest or weed control at 31 g/ha [8, 25] was 100% and the pest or weed control at 62 g/ha [8, 25] was 100%. The pest or weed control at 250 g/ha [9] was 95%, the plant injury at 250 g/ha (rice (Oryza sativa)) was 35% and the pest or weed control at 250 g/ha [10] was 90%. The pest or weed control at 250 g/ha [11] was 45%.
